The source made the active and inactive calls.
Tests used:
[1] = NIH-3T3 fibroblast cytotoxicity, dose response, cytotoxicity control, cell-based, fluorescence, Alamar Blue, secondary assay (AID 2327); format: functional;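 further: NIH-3T3 mouse fibroblasts cultured with fluconazole at 8 µg/mL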
[2] = C. albicans growth with fluconazole, confirmation, fluorescence, retest (AID 2467); format: functional, cell-based
[3] = molecular target: Estrogen receptor beta (Homo sapiens, UniProt Q92731); assay: ERβ–SRC-3 coactivator interaction inhibitors, confirmation, orthogonal assay, biochemical, ELISA, streptavidin-HRP readout (AID 1060)
[4] = Luminescence Cell-Based Dose Response to Identify Activators of 5'UTR Stem-Loop Driven Prion Protein mRNA Translation in H4-C Neuroglioblastoma Cells. [Related pubchem assays: 1829 (Project Summary), 1814 (Primary HTS)]; format: functional
[5] = system: H4; assay: Luminescence Cell-Based Dose Response HTS to Identify Activators of 5'UTR Stem-Loop Driven Prion Protein mRNA Translation in H4 Neuroglioblastoma Cells. [Related pubchem assays: 1829 (Project Summary), 1814 (Primary HTS)]; format: functional; conditions: Homo sapiens
[6] = Luminescence Cell-Based Dose Response to Identify Activators of Luciferase Translation or Activity in H4-C Neuroglioblastoma Cells. [Related pubchem assays: 1829 (Project Summary), 1814 (Primary HTS)]; format: functional
[7] = molecular target: Epstein-Barr nuclear antigen 1 (Epstein-Barr virus (strain B95-8) (HHV-4) (Human herpesvirus 4), UniProt P03211); assay: EBNA-1 inhibitors, dose response, biochemical, fluorescence polarization, 1536-well (AID 2381); design: species or system human gammaherpesvirus 4;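 further: fluorescence polarization of a Cy5 DNA probe bound by EBNA-1 protein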
[8] = molecular target: Lytic switch protein BZLF1 (Epstein-Barr virus (strain B95-8) (HHV-4) (Human herpesvirus 4), UniProt P03206); assay: EBV ZTA inhibitors, dose response, counter-screen for EBNA-1 inhibitor project, biochemical, fluorescence polarization, Epstein-Barr virus, 1536-well (AID 2377); design: species or system human gammaherpesvirus 4;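 further: fluorescence polarization of Cy5-labelled ZRE DNA probe bound by purified Zta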
[9] = Luminescence Cell-Based Dose Confirmation to Identify Activators of 5'UTR Stem-Loop Driven Alpha-Synuclein mRNA Translation in H4 Neuroglioblastoma Cells. [Related pubchem assays: 1829 (Project Summary), 1814 (Primary HTS)]; format: functional
[10] = inhibitors of firefly luciferase expression or activity, dose response, H4 neuroglioma cells, luminescence (AID 1990); format: functional, cell-based
[11] = insulin promoter down-regulators in MIN6 cells, imaging, high-content screening, mouse beta cells (AID 1628); format: functional
[12] = system: Streptococcus sp. 'group A'; assay: growth inhibition of control SK(-) GAS strain, dose response, counter-screen for streptokinase expression inhibitor project, luminescence, kanamycin, BacTiterGlo, confirmation (AID 1900); format: functional, organism-based
[13] = Luminescence Cell-Based Dose Response HTS to Identify Inhibitors of 5'UTR Stem-Loop Driven Prion Protein mRNA Translation in H4 Neuroglioblastoma Cells. [Related pubchem assays: 1827 (Project Summary), 1813 (Primary HTS)]; format: functional
[14] = cytotoxicity in MIN6 insulinoma cells, dose response, cytotoxicity control, cell-based, mouse insulinoma (AID 2122); format: functional;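 further: confirmatory high-throughput counterscreen run to flag cytotoxic compounds; mouse MIN-6 beta cells carrying an insulin promoter eGFP reporter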
[15] = system: Vero; assay: host cell cytotoxicity of antiviral hits, dose response, cytotoxicity control for West Nile virus antiviral project, secondary assay (AID 1650); format: functional; conditions: Chlorocebus sabaeus
[16] = inhibitors of SNCA 5'UTR-driven reporter translation, confirmation, H4 neuroglioma cells, luminescence (AID 1988); format: functional, cell-based
[17] = molecular target: Induced myeloid leukemia cell differentiation protein Mcl-1 (Homo sapiens, UniProt Q07820); format: functional
[18] = system: Streptococcus; assay: Group A Streptococcus viability loss, dose response, counter-screen for streptokinase expression inhibitor project, luminescence, BacTiterGlo (AID 1915); format: functional, organism-based;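 further: potency for reduction of bacterial viability or growth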
[19] = molecular target: T1, Exodeoxyribonuclease V (Escherichia coli (strain K12), UniProt P04993+P07648+P08394); assay: E. coli RecBCD inhibitors, dose response, counter-screen for AddAB inhibitor project, absorbance, V66 E. coli, mutant T4 phage (AID 492957); format: functional, cell-based, Escherichia coli str. K-12 substr. MG1655
T1 sequence (P04993 whole entry): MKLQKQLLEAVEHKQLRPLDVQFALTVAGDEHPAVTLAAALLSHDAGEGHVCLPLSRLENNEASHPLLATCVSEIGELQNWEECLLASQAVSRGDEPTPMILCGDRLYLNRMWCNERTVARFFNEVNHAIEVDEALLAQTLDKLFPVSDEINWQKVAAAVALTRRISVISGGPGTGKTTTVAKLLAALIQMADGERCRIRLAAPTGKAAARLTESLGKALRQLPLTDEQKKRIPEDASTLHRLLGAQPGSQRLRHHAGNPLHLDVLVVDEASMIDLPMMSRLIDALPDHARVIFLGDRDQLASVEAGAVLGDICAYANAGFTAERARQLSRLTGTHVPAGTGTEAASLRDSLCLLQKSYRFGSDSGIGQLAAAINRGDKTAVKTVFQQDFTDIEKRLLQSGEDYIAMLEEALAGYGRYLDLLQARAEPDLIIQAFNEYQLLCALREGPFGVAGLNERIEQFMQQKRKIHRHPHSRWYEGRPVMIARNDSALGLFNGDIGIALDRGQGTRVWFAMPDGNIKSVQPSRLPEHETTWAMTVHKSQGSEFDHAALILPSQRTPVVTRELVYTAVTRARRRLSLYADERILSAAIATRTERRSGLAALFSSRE
T1 sequence (P07648 whole entry): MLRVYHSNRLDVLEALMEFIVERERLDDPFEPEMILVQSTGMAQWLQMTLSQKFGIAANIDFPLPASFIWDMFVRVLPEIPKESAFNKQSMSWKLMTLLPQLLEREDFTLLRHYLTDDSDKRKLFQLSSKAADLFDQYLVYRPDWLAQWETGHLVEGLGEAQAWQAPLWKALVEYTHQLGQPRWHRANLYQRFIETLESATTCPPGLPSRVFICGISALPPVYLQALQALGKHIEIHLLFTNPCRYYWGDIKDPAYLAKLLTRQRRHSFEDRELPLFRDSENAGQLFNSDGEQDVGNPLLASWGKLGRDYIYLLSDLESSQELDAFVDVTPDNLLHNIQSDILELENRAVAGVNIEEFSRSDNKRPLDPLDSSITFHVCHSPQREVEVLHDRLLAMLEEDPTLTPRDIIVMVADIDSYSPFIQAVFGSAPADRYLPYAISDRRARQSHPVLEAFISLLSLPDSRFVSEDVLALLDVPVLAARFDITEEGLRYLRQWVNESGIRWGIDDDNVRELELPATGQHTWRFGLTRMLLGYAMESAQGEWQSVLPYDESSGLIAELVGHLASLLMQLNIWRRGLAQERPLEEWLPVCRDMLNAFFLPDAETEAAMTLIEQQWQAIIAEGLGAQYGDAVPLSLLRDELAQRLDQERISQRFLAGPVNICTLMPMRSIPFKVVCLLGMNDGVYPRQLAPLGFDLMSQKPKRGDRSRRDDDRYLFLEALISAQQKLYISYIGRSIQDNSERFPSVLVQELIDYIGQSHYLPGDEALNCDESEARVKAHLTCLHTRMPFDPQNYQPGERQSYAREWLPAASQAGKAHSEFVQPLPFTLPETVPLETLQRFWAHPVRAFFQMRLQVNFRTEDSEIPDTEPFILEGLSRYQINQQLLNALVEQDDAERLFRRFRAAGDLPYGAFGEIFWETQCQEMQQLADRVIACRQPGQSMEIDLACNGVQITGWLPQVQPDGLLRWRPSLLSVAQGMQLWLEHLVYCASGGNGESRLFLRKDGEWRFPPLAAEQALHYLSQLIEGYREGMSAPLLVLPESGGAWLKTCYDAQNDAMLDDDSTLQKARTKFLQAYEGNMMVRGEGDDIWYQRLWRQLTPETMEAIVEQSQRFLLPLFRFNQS
T1 sequence (P08394 whole entry): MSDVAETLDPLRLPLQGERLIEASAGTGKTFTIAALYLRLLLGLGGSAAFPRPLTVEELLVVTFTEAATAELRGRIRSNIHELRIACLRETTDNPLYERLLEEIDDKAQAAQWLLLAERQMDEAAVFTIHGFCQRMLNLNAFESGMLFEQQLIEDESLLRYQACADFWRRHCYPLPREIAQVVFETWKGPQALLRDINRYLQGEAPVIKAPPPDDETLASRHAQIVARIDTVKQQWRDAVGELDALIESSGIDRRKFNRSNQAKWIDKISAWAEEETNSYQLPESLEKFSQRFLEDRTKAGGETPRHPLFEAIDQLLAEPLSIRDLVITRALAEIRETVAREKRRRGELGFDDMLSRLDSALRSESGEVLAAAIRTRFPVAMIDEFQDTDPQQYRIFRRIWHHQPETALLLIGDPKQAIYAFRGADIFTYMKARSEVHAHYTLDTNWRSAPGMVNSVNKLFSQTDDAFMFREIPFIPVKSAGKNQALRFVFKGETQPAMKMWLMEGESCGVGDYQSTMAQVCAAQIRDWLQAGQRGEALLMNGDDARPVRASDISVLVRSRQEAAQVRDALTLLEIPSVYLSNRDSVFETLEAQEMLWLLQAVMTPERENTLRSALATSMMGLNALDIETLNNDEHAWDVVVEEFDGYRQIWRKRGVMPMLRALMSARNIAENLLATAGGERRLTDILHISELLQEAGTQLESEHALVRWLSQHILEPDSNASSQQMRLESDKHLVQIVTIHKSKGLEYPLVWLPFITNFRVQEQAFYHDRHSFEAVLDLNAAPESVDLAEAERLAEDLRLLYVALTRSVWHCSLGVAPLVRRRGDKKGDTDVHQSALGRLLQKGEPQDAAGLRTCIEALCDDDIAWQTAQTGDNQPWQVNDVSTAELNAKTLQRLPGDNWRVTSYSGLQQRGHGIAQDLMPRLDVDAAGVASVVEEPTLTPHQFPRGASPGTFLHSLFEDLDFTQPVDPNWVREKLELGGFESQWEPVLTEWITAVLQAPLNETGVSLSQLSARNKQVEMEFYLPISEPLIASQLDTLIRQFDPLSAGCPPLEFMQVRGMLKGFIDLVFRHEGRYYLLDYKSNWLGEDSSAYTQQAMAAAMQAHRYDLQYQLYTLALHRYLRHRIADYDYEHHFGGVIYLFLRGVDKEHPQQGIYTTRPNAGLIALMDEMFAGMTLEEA

[20] = Counterscreen for AddAB inhibitors: absorbance-based bacterial cell-based high throughput dose response assay for inhibitors of bacterial viability. [Related pubchem assays (depositor defined):AID435030, AID449728, AID449731, AID488942, AID488955, AID488956]; format: functional
[21] = system: INS1; assay: beta cell apoptosis inhibitors, cytokine rescue, dose response, luminescence, retest (AID 449756); format: functional, cell-based; conditions: Rattus norvegicus;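 further: cell death triggered by IL-1 beta plus TNF-alpha plus IFN-gamma mixture; protective hits raise ATP signal compared with cytokine alone wells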
[22] = molecular target: T2, Streptokinase A (Streptococcus pyogenes serotype M1, UniProt P10520); assay: S. pyogenes streptokinase expression inhibitors, potency, dose response, plasminogen activation absorbance, OD405 (AID 1914); format: functional, Streptococcus pyogenes M1 GAS;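 further: secreted streptokinase activity via plasminogen activation per viability signal from cell pellet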
T2 sequence (P10520 whole entry): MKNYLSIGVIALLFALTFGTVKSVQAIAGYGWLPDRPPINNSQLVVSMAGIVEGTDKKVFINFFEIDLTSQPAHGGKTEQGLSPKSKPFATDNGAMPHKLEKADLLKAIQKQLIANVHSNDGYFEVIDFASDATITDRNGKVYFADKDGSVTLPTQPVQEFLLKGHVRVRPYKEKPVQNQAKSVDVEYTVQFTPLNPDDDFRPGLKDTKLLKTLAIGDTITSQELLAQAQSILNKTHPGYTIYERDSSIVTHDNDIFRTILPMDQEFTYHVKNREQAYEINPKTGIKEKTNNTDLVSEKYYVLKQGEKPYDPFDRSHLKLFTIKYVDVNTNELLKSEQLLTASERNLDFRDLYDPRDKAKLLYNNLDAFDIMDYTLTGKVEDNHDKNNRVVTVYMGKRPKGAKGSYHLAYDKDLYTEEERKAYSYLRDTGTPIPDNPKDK

[23] = Luminescence-based counterscreen assay for KLF5 inhibitors: dose response cell-based high throughput screening assay to identify cytotoxic compounds using the IEC-6 intestinal epithelial cell line. [Related pubchem assays: 1700 (Primary screen.), 1834 (Confirmation screen.), 1858 (Summary AID.), 1905 (Counterscreen.)]; format: functional
[24] = A549 cell cytotoxicity, dose response, cytotoxicity control, plate reader, cherry-pick, antagonist series (AID 743412); format: functional, cell-based
[25] = HepG2 cell cytotoxicity, dose response, cytotoxicity control, plate reader, cherry-pick, antagonist series (AID 743416); format: functional, cell-based
[26] = LGR2 antagonists, dose response, cell-based, HEK293, CRE-luciferase reporter, cherry pick, set 2 (AID 743343); format: functional;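 further: transfected cells were stimulated with diluted bursicon conditioned medium after compound addition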
[27] = MC4R antagonists, dose response, counter-screen for LGR2 antagonist project, cell-based, plate reader, cherry pick (AID 743444); format: functional;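 further: transfected HEK 293 cells stimulated with alpha-MSH peptide; potency of inhibitors of the alpha-MSH evoked signal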
[28] = HEK293 cell cytotoxicity, dose response, cytotoxicity control, plate reader, cherry-picked samples (AID 743446); format: functional, cell-based

Sequence of Lytic switch protein BZLF1 (P03206 whole entry): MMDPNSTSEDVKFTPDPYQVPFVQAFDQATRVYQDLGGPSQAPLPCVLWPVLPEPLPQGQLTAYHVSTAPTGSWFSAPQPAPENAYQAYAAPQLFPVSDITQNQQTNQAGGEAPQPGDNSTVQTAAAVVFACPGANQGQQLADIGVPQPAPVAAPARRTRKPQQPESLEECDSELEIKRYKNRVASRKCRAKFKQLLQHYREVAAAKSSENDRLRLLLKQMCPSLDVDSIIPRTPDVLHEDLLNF
Sequence of Epstein-Barr nuclear antigen 1 (P03211 whole entry): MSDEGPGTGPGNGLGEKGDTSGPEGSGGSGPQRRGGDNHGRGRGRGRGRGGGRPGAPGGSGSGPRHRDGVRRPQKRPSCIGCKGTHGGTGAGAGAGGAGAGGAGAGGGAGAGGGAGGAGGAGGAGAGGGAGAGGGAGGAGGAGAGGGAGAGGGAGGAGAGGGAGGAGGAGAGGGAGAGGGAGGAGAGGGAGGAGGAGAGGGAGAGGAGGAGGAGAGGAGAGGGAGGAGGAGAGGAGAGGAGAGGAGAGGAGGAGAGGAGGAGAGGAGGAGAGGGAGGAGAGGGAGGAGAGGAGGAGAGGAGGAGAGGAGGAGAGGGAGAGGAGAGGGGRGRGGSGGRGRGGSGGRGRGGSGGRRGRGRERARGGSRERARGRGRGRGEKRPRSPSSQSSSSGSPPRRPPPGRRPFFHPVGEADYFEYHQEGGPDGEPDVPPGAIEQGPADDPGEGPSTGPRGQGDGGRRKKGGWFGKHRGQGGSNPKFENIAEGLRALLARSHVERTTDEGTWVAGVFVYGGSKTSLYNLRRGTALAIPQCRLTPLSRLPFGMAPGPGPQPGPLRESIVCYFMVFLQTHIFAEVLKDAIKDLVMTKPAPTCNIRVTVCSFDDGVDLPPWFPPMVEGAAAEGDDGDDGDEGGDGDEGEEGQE
Sequence of Induced myeloid leukemia cell differentiation protein Mcl-1 (Q07820 whole entry): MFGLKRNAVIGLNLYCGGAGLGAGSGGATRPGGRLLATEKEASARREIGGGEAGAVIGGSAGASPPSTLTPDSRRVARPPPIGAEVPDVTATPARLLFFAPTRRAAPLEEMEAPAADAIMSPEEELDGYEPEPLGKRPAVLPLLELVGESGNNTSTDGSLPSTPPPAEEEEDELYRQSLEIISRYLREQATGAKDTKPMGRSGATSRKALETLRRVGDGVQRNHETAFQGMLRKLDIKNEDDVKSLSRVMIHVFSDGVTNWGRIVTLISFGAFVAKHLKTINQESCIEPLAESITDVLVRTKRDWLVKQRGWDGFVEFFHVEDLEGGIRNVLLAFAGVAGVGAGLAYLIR
Sequence of Estrogen receptor beta (Q92731 whole entry): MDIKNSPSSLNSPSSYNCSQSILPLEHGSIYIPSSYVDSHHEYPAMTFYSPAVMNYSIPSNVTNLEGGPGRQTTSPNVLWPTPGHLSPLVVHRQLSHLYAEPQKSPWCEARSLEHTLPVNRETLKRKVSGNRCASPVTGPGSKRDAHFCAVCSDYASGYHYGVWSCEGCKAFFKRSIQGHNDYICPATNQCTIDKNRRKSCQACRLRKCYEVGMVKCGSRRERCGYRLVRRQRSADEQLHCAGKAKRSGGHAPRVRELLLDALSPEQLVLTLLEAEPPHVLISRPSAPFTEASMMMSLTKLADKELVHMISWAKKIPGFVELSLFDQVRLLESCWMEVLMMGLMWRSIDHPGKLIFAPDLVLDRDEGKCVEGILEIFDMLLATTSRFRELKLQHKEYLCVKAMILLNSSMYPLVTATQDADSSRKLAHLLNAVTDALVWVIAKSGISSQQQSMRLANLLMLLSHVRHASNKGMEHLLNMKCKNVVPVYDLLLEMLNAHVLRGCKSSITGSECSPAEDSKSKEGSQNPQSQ

With CN1CCN(C(c2cccnc2)c2ccc3cccnc3c2O)CC1 (stereo not given) the EC50 [1] was > 160 µM (inactive), the EC50 [2] was > 38 µM (not active) and the IC50 [3] was 32.6 µM (not active).
For Cc1cc(C(=O)CSc2nnnn2-c2ccccc2)c(C)n1CC1CCCO1 (stereo not given), the EC50 [4] was 0.326 µM (active), the EC50 [5] was < 0.1 µM (active) and the EC50 [6] was 0.353 µM (active). For the same compound, the IC50 [7] was 5.23 µM (active), the IC50 [8] was > 111 µM (not active) and the EC50 [9] was 0.338 µM (active).
For Cc1ccc(C(C)C)c(OCc2ccc(C(=O)N/N=C/c3ccc(O)cc3O)cc2)c1, the EC50 [10] was 3 µM (active), the IC50 [11] was 1.03 µM (active) and the EC50 [12] was 1.3 µM (active). For the same compound, the EC50 [13] was 8.36 µM (active), the IC50 [14] was 1.04 µM (active) and the CC50 [15] was 6.86 µM (active). For the same compound, the EC50 [16] was 2.17 µM (active), the IC50 [17] was 4.97 µM (active) and the EC50 [18] was 2.15 µM (active). The IC50 [19] was > 119 µM (inactive), the IC50 [20] was > 119 µM (inactive) and the AC50 [21] was 1.24 µM (active).
With O=C(Nc1nc2cc3c(cc2s1)OCCO3)c1ccco1 the EC50 [12] was 19.5 µM (active), the EC50 [22] was > 150 µM (not active) and the IC50 [23] was 7.91 µM (active). The EC50 [18] was 53.5 µM (active), the AC50 [24] was 12.9 µM (active) and the AC50 [25] was 28.5 µM (active). For the same compound, the AC50 [26] was 1.12 µM (active), the AC50 [27] was 1.07 µM (active) and the AC50 [28] was 45.4 µM (active).

— ChEMBL document CHEMBL1201862, “PubChem BioAssay data set” (2004)
